Experimental data taken from patent publication US20230329308A1, “COMPOSITIONS COMPRISING A MINERAL SALT FOR ORAL USE” (DIFASS INTERNATIONAL S.P.A., priority 2020, published 2023).
“Also recorded” adds a separate entry of the source.

Legend:
[1] = Evaluation of organoleptic characteristics of the granulate vs iron fumarate (Example II); type: in vivo, human; settings: score 1 (intolerable) to 5 (highly tolerable); one score per participant, 4 subjects; amount equivalent to 14 mg elemental iron
Protocol: A portion of the granulate described in Example I and a portion of commercially available iron fumarate, both equivalent to 14 mg of elemental iron (100% of Nutrient Reference Value—EU Reg. 1169/2011) were weighed separately using known procedures.
The following trial protocol was used to evaluate the organoleptic characteristics of the two samples compared.
Each of the compositions listed in Table II above was tested on a group of 4 subjects. The inclusion criteria for admission to the test were solely ethical: the subjects had to be over the age of majority, healthy, and not suffering from any taste and/or iron metabolism alterations correlated with disorders and/or illnesses.
Each subject independently tasted first one and then the other sample of the example, maintaining a suitable time interval (at least 2 hours) between one tasting and the next, and rinsing their mouth, so that the evaluation of each administration was not influenced by the previous one.
On each tasting, the following parameters were evaluated: metallic odour and flavour, gastrointestinal tolerability, aftertaste, and staining of teeth, tongue and/or palate. […]

[2] = in words; cited from earlier work
[3] = in words; cited from earlier work; remark: listed apart in the source
[4] = Comparative iron release profile, simulated gastrointestinal conditions, ICP-OES; type: physicochemical; settings: sample equivalent to 30 mg elemental iron, HCl 0.1N then pH 6.8, 37°C
Protocol: The release profile and bioavailability of the composition according to the invention were analysed and measured by comparison with iron sulphate (the preferred form for pharmacological treatment) using an in vitro system, under conditions simulating the gastrointestinal environment.
The tests were conducted according to methods published in the international scientific literature and internally validated.
For the measurement of the comparative release profile, amounts of the two test samples were first weighed, both equivalent to 30 mg of elemental iron. The samples were initially placed in contact with a solution of HCl (0.1N) and incubated at a temperature of 37±0.5° C. A solution of Na2HPO4 was then added to the samples to buffer the pH to a value of 6.8. Said conditions were maintained throughout the remainder of the experiment. To evaluate the release profile of the iron, the two samples were centrifuged at 10,000 rpm at pre-set time intervals such as 1, 2, 4, 6 and 24 h. At the end of centrifugation the samples were taken up and analysed to evaluate the iron release profiles. The iron determination analyses were conducted with the ICP-OES THERMO FISHER ICAP 6300.

[5] = In vitro bioavailability study, dialysis membrane method with simulated buccal, gastric and intestinal digestion; type: in vitro ADME
Protocol: The in vitro bioavailability study was conducted by the dialysis membrane method. Said method, by its nature, is based on the physicochemical characteristics of the environments wherein the desired substance passes from one compartment to the other, and takes no account of any active mechanisms or biological interaction. The method involves three successive simulated digestion stages: buccal digestion in the presence of amylase, gastric digestion in the presence of pepsin, and finally, intestinal digestion in the presence of pancreatin.
In order to simulate buccal digestion, suitable amounts of the test samples were placed in contact with 10 mg of amylase and 1.5 mL of PBS at pH 6.9 (10^-3 M). The resulting mixtures were inserted into dialysis membranes (Spectrum Laboratories Inc., USA, MWCO: 12-14,000 Daltons), tightly closed at each end and immersed in vials containing PBS at pH 6.9. The samples were then incubated at a temperature of 37±0.5° C. for 5 minutes.
After incubation, HCl (0.85N), pepsin and a solution of NaN3 (0.04% w/w) were added to the open membranes. The membranes were closed, placed in vials containing HCl (0.85N), and incubated at 37±0.5° C. for 2 h.
After said 2 h period, a solution of NaHCO3 (0.8 M) and pancreatin was added. The closed membranes were placed in vials containing PBS at pH 7.0, and incubated at a temperature of 37±0.5° C. for a further 4 h.
To evaluate the in vitro bioavailability of the iron, the solution contained in the vials was taken up after each digestion step, and the samples were analysed with an ICP-OES THERMO FISHER ICAP 6300.
Bioavailability is defined as the percentage of iron recovered in the bioaccessible fraction after in vitro digestion, in relation to the original undigested sample, and calculated with the equation: (bioaccessible fraction/total content)×100%.

## O=C([O-])/C=C/C(=O)[O-].[Fe+2] [Sample B, Iron fumarate]
[1]
  Gastrointestinal tolerability: Gastrointestinal tolerability: 5; also recorded: Gastrointestinal tolerability: 3
[2]
  Water solubility compared with iron sulphate: far less water-soluble than iron sulphate
[3]
  Iron release compared with iron sulphate: generically lower iron release than iron sulphate

## O=S(=O)([O-])[O-].[Fe+2] [Ferrous sulphate]
[4]; 1 h
  Iron released: 84.16 ± 1.07
[4]; 2 h
  Iron released: 85.22 ± 0.98
[4]; 4 h
  Iron released: 100.03 ± 0.20
[5]; amylase, PBS pH 6.9, 37°C, 5 minutes
  Bioaccessible fraction, buccal digestion: 8.61 ± 0.73
[5]; pancreatin, NaHCO3, PBS pH 7.0, 37°C, 4 h
  Bioaccessible fraction, intestinal digestion: 7.16 ± 0.41
[5]; pepsin, HCl 0.85N, 37°C, 2 h
  Bioaccessible fraction, gastric digestion: 65.81 ± 1.39
